Values quoted from earlier work in paper PMC8537947, “Improved Radiolytic Stability of a ^68Ga-labelled Collagelin Analogue for the Imaging of Fibrosis” (Pharmaceuticals, 2021).

Tests used:
[1] = system: frozen sections of dog heart affected by fibrosis; conditions: cited from earlier work
Text: The presence of excessive deposition of collagen was confirmed previously performing a Sirius Red histological assay on the adjacent tissue sections. The uptake of [^68Ga]Ga-NO2A-[Nle^13]-Col in the fibrotic tissue linearly correlated (R^2 = 0.84, Figure 2C) with the scoring of fibrosis, indicating a target density ranging between ...

collagen I = conditions: initial cyclic peptide analogues, earlier work of the authors; cited from earlier work
Text: One of the targets for radioactive imaging agents is type I collagen which is the most abundant extracellular matrix protein [1, 2, 3, 4, 5, 6]. Collagelin, a cyclic peptide identified from the bacterial peptide library, presumably binds selectively to the triple helix structure of collagen. The aim of this study was to develop a PET tracer for the specific imaging of early active fibrosis via binding to monomer collagen. The uptake in bone, skin and other tissues rich in collagen cross-linked fibrils, and in diseased sites with established, mature collagen was expected to be low, ...

c[CPGRVXHGLHLGDDEGPC] (disulfide) [[^68Ga]Ga-NO2A-Col]
target density [1]: 2.0 fmol/mm^3
Kd (collagen I): 2.3 ± 0.8 µM
